Measurements published in patent publication US20040106673A1, “Compositions and methods for inhibiting proliferation in human prostate cancer cells” (priority 2002, published 2004).
Where “and” joins values, the source holds several entries; their conditions need not be identical. Identical values can stand only once.

What was measured:
LNCaP cells [1] = assay: Number of viable LNCaP cells (trypan blue exclusion); format: cell-based, human; settings: for effect on LNCaP cell growth (FIG. 2): TPA alone 0.32 nM, ATRA alone 0.5 to 10 μM, or 0.32 nM TPA with increasing ATRA
Experimental: LNCaP cells were seeded in culture dishes and incubated for 24 hours to allow the cells to attach to the culture dishes. The cells were then treated with ethanol (2 μl/ml) or TPA in ethanol (0.2 to 10 ng/ml) for 96 hours.
The number of viable and dead cells was determined by trypan blue exclusion. […] The concentration of TPA that caused a 50% inhibition of LNCaP cell growth was 3 nM (IC50). The IC50 for TPA varied between 1 and 3 nM in different experiments.
(§1) LNCaP cells were obtained from the American Type Culture Collection (Rockville, Md., USA). TPA was obtained from Alexis Co. (San Diego, Calif.). ATRA was obtained from Sigma Chemical Co. (St. Louis, Mo.). LNCaP cells were maintained in RPMI-1640 culture medium containing 10% fetal bovine serum that was supplemented with penicillin (100 units/ml), streptomycin (100 μg/ml) and L-glutamine (300 μg/ml) as described (Zheng, X. et al. 2000. Oncol. Res. 12:419=427). Cultured cells were grown at 37° C. in a humidified atmosphere of 5% CO2 and were passed twice a week. In all experiments, LNCaP cells were initially seeded at a density of 1×10^5 cells/ml in a final volume of 2 or 5 ml in 35 or 60 mm tissue culture dishes, respectively.
To quantify the number of viable cells after each treatment, cells were counted using a hemacytometer under a light microscope. Cell viability was determined by the trypan blue exclusion assay, which was done by mixing 80 μl of cell suspension and 20 μl of 0.4% trypan blue solution for 2 minutes.

LNCaP cells [2] = assay: Flow cytometry (propidium iodide): cell cycle distribution and apoptosis in cultured LNCaP cells; format: cell-based, human; settings: for apoptotic cells (percent of pre-G0/G1 cells): single drug, TPA 0.16 or 0.32 nM
Experimental: as §1, with “ATRA was obtained from Sigma Chemical Co. (St. Louis, Mo.).” left out
To perform the analysis, 1×10^6 cells were washed with phosphate-buffered saline (PBS) and resuspended in 500 μl of stain solution (20 mg/ml polyethylene glycol 8000, 50 μg/ml propidium iodide, 0.1% Triton-X-100, and 0.4 M sodium chloride). The mixture was incubated at 4° C. overnight in the dark before being analyzed on a Coulter Epics-Profile II flow cytometer. Propidium iodide is a fluorescent dye that intercalates into the DNA double helix. Whether cells are in the G1 phase where they have two copies of their genome or in the G2/M phase where they have 4 copies of their genome, or in the S phase where their DNA is between the two states, can be determined by the amount of propidium iodide that intercalates into the DNA. Pre G0/G1 cells were considered apoptotic cells. The proportion of cells in each phase of the cell cycle was calculated using the cytologic software provided.

LNCaP tumors [3] = assay: Second in vivo study: TPA, ATRA or both i.p. in NCr mice with LNCaP tumors, 21 or 46 days; settings: for % of Mice with Tumor Growth / % of Mice with Tumor Regression: i.p.; for percent of initial tumor size: TPA 0.16 nmol/g
Experimental: Tumor cell growth was measured and expressed as percent of initial size (FIG. 3). […] In this table, mice in Group A (13 mice/group) were treated for 21 days, while mice in Group B (6 mice/group) were a subset of the original group and were treated for an additional 25 days.
The effect of the 21 day treatments on body weight was examined in order to determine if there was the same level of toxicity seen in the first animal study.
The results from the Group B animals were analyzed separately.
Male Ncr immunodeficient mice (6 to 7 weeks old) were obtained from Taco Farms (Germantown, N.Y.). The animals were housed in sterile filter-capped microisolator cages and provided with sterilized food and water. Prostate cancer cells (2×10^6 cells/0.1 ml/mouse) suspended in 50% matrigel (Collaborative Research, Bedford, Mass.) in RPMI 1640 medium were injected subcutaneously into the right flank of the mice. After 4 to 6 weeks, mice with well-established tumors (0.65 to 1 cm by 0.65 to 1 cm) were used for the various experiments. In all experiments, animals received the same volume of injections (5 μl/g body weight). Tumor size and body weight were measured daily. At the end of a study, mice were sacrificed by decapitation, tumors were excised, weighed, and placed in phosphate-buffered formalin for 48 hr at room temperature and then placed in ethanol for 48 hr before preparing paraffin sections.

LNCaP tumors [4] = assay: Mitotic cells and caspase 3 (active form) immunostaining in LNCaP tumors from treated mice; format: in vivo, male NCr mice; settings: mice treated for 46 days
Experimental: (§2) Tumor size and body weight were measured daily.
Tumor sections used were stained by the horseradish peroxidase-conjugated-avidin method. Endogenous peroxidase was blocked by incubating the tissue sections in 3% hydrogen peroxide in methanol for 30 minutes at room temperature. Sections were then treated with 0.01 M sodium citrate buffer (pH 6.0) in a microwave oven at high temperature for 10 minutes. The sections were incubated with a protein block (normal goat serum) for 10 minutes, followed by avidin D for 15 minutes and biotin blocking solution for 15 minutes at room temperature. The sections were incubated with caspase 3 primary antibody (1:2000 dilution) for 30 minutes at room temperature followed by incubation with a biotinylated anti-rabbit secondary antibody for 30 minutes and incubation with conjugated-avidin solution for 30 minutes. Color development was achieved by incubation with 0.02% 3,3′-diaminobenzidine tetrahydrochloride containing 0.02% hydrogen peroxide for 10 minutes at room temperature. The slides were then counterstained with hematoxylin, dehydrated and coverslips were added for permanent mounting. A positive reaction was shown as a light brown to dark brown precipitate in the cytoplasm and/or perinuclei of the cells.

LNCaP tumors [5] = assay: First in vivo study: TPA i.p. in NCr mice with LNCaP tumors, 13 days; design: species or system male NCr mice
Experimental: With the feasibility of the use of TPA by i.p. injection now established, male NCr mice were injected subcutaneously with LNCaP cells in matragel. […] On day 3, the dose of TPA was increased (0.32 nmol/g; 5 μl vehicle/g body weight) and this dose level was administered i.p. for 11 days. The length and width of each tumor was measured at the start of the study and during treatment with TPA. Tumor size was expressed as cm^2 (length×width). There was a statistically significant inhibition of tumor cell growth in the TPA treated animals. The average tumor size in the vehicle-treated control group increased to about 200% of the initial tumor size while the average tumor size after 13 days of treatment with TPA was about 95% of the initial tumor size.
as §2

[6] = doses of TPA in the range of 0.25 to 1 mg; cited from earlier work
[7] = Blood levels of TPA after i.p. injection in NCr mice (HL-60 differentiation bioassay); format: in vivo, male NCr mice
Experimental: Immunodeficient male NCr mice were used as they are a well-established mouse model for examination of human tumor cell growth. […] TPA was administered in a vehicle that consisted of propylene glycol, polysorbate 80, benzyl alcohol, ethanol, and water (40:0.5:1:10:48.5). Peak blood levels of TPA were in the range of 3 ng/ml (4.8 nM) after a 200 ng/g injection and 1 ng/ml (1.7 nM) after a 100 ng/g injection.
The concentration of TPA in blood after an i.p. injection of TPA was measured by a bioassay that quantifies ethyl acetate-extractable differentiating activity in blood (Cui, X. X. et al. 2002. Oncol. Res. 13:169-174). Differentiating activity was measured in HL-60 cells. […] Although blood levels of bioactive material are expressed as ng of TPA/ml blood, the assay could include biologically active metabolites.

[8] = TPA 0.32 nM, ATRA 1 μM, 96 hours
[9] = entire 46 day treatment interval (Group B), ATRA 0.5 nmol/g
[10] = Treatment for 48 Hours, TPA 1 ng/ml, Taxol 5 ng/ml
[11] = Treatment for 96 Hours, TPA 1 ng/ml, Taxol 5 ng/ml

SMILES	# Visible Cells (1 × 10^5) (LNCaP cells [1]; [8])	effect on LNCaP cell growth (FIG. 2) (LNCaP cells [1])	% Apoptotic Cells (LNCaP cells [2]; [8]) [%]	% Cells in G0/G1 (LNCaP cells [2]; [8]) [%]	% Cells in G2/M (LNCaP cells [2]; [8]) [%]	% Cells in S (LNCaP cells [2]; [8]) [%]	apoptotic cells (percent of pre-G0/G1 cells) (LNCaP cells [2]; 96 hours, ATRA 1 μM)	% of Mice with Tumor Growth (LNCaP tumors [3]; Group A, 21 days) [%]	% of Mice with Tumor Regression (LNCaP tumors [3]; Group A, 21 days) [%]	% of Mice with Tumor Growth (LNCaP tumors [3]; Group B, 46 days) [%]	% of Mice with Tumor Regression (LNCaP tumors [3]; Group B, 46 days) [%]	percent of initial tumor size (LNCaP tumors [3]; [9]) [%]	% Caspase 3 Positive Cells (LNCaP tumors [4]) [%]	% Mitotic Cells (LNCaP tumors [4]) [%]	# Visible Cells (1 × 10^5) (LNCaP cells [1]; [10])	# Visible Cells (1 × 10^5) (LNCaP cells [1]; [11])	% Apoptotic Cells (LNCaP cells [2]; [10]) [%]	% Cells in G0/G1 (LNCaP cells [2]; [10]) [%]	% Cells in G2/M (LNCaP cells [2]; [10]) [%]	% Cells in S (LNCaP cells [2]; [10]) [%]	other results
CC1=C(/C=C/C(C)=C/C=C/C(C)=C/C(=O)O)C(C)(C)CCC1 [ATRA, all-trans-retinoic acid]	11.1 1 × 10^5	little effect on LNCaP cell growth	3.5	73.3	8.2	14.8	same low level of apoptotic cells	69	31	83	17	159.2±27.0	0.35 ± 0.03	0.54 ± 0.04	–	–	–	–	–	–	rate of tumor growth at later time intervals (FIG. 5) (LNCaP tumors [3]; Group B, 46 days, ATRA 0.5 nmol/g): about the same rate as tumors in the vehicle control group
CCCCCCCCCCCCCC(=O)O[C@@H]1[C@@H](C)[C@@]2(O)[C@@H](C=C(CO)C[C@]3(O)C(=O)C(C)=C[C@@H]23)[C@@H]2C(C)(C)[C@]12OC(C)=O [TPA, 12-O-tetradecanoylphorbol-13-acetate]	6.9 1 × 10^5	slight inhibitory effect on cell growth	5.4	69.7	8.7	15.9	same low level of apoptotic cells	38	62	33	67	106.1±21.0	0.45 ± 0.03	0.50 ± 0.05	3.7 1 × 10^5	3.2 1 × 10^5	10.1	77.8	5.5	13.0	apoptotic cell morphology (LNCaP cells [1]; 3.2 nM TPA): morphologically distinct apoptotic cells; toxicity (LNCaP tumors [5]; 13 days, TPA 0.16 then 0.32 nmol/g i.p. once a day): excessive toxicity (decreased body weight and one death on day 14 of the study); average tumor size, % of the initial tumor size (LNCaP tumors [5]; after 13 days, TPA 0.16 nmol/g for 2 days then 0.32 nmol/g for 11 days, i.p.): about 95%; % Apoptotic Cells (LNCaP cells [2]; [11]): 11.2%; % Cells in G0/G1 (LNCaP cells [2]; [11]): 66.7%; % Cells in G2/M (LNCaP cells [2]; [11]): 9.5%; % Cells in S (LNCaP cells [2]; [11]): 12.3%; toxicity in humans [6]: only vein irritation and transient fever, and an occasional incidence of transient dyspnea; percent of initial tumor size (LNCaP tumors [3]; 21 days, once a day i.p., ATRA 0.5 nmol/g): 96.4±3.1%; effect on body weight (LNCaP tumors [3]; treated for 46 days): significant decreases in body weight; Ratio of Mitotic Cells/Caspase 3 Cells (LNCaP tumors [4]): 1.13 ± 0.11; peak blood level of TPA ([7]; after a 100 ng/g i.p. injection): ~1 ng/ml and ~1.7 nM; peak blood level of TPA ([7]; after a 200 ng/g i.p. injection): about 3 ng/ml and ~4.8 nM; time of peak blood levels ([7]; i.p. 100 or 200 ng TPA per gram of body weight): 30 to 60 min; TPA in blood at 8, 12 or 24 hours ([7]; i.p. injection of 100 ng/g TPA): No TPA was detectable; TPA in blood at 8 and 24 hours ([7]; i.p. injection of 200 ng/g TPA): Measurable blood levels of TPA; half-life of TPA ([7]; i.p., NCr mice): 3 to 6 h
CC(=O)O[C@H]1C(=O)[C@@]2(C)[C@H]([C@H](OC(=O)c3ccccc3)[C@]3(O)C[C@H](OC(=O)[C@H](O)[C@@H](NC(=O)c4ccccc4)c4ccccc4)C(C)=C1C3(C)C)[C@]1(OC(C)=O)CO[C@@H]1C[C@@H]2O [Taxol, paclitaxol]	–	–	–	–	–	–	–	–	–	–	–	–	–	–	4.6 1 × 10^5	2.5 1 × 10^5	12.9	73.0	6.4	12.8	% Apoptotic Cells (LNCaP cells [2]; [11]): 28.4%; % Cells in G0/G1 (LNCaP cells [2]; [11]): 49.7%; % Cells in G2/M (LNCaP cells [2]; [11]): 8.7%; % Cells in S (LNCaP cells [2]; [11]): 12.4%
